Measured values as given in patent US11109593B2, “Isoxazolin-5-one derivative and herbicide containing same as active ingredient” (HOKKO CHEMICAL INDUSTRY CO., LTD., priority 2017, dated 2021).

Legend:
Assay type in all cases: in vivo
southern crabgrass [1] = test: Test Example 3: herbicidal effect test by treatment of dry field farming soil (one day after seeding); conditions: 120 g/10a active ingredient, evaluated 14 days after treatment
Summary of the method: (§1)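 Pre-emergence soil treatment: alluvial dry-field soil, 20 seeds per species mixed into top 1 cm, emulsion diluted in water sprayed one day after seeding at 100 L per 10 ares (120 g active ingredient per 10 ares). Duplicate pots; herbicidal rate (%) from dry weight vs untreated at 14 days.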

Echinochloa crus-galli [2] = test: as above; conditions: 120 g/10a active ingredient, evaluated 14 days after treatment
Summary of the method: as §1

Chenopodium album [3] = test: as above; conditions: 120 g/10a active ingredient, evaluated 14 days after treatment
Summary of the method: as §1

Amaranthus viridis [4] = test: as above; conditions: 120 g/10a active ingredient, evaluated 14 days after treatment
Summary of the method: as §1

southern crabgrass [5] = test: Test Example 4: herbicidal effect test by treatment of leave and stem in dry field farming (seven days after seeding); conditions: 120 g/10a active ingredient, emulsion sprayed seven days after seeding, evaluated 14 days after treatment
Summary of the method: (§2)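 Duplicate pots were scored 14 days post-spray by dry weight, herbicidal rate = {1 − treated/untreated average dry weight} × 100. The water-diluted emulsion, equivalent to 120 g active ingredient per 10 ares in 100 L, was applied seven days after sowing 20 seeds each into the upper 1 cm of alluvial soil.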

Echinochloa crus-galli [6] = test: as above; conditions: 120 g/10a active ingredient, emulsion sprayed seven days after seeding, evaluated 14 days after treatment
Summary of the method: as §2

Chenopodium album [7] = test: as above; conditions: 120 g/10a active ingredient, emulsion sprayed seven days after seeding, evaluated 14 days after treatment
Summary of the method: as §2

Amaranthus viridis [8] = test: as above; conditions: 120 g/10a active ingredient, emulsion sprayed seven days after seeding, evaluated 14 days after treatment
Summary of the method: as §2

Scirpus juncoides [9] = test: Test Example 2: herbicidal effect test by treatment during growing period in paddy rice cultivation (seven days after seeding); conditions: 120 g/10a active ingredient, assessed 14 days after treatment, dry weight vs untreated area
Summary of the method: (§3)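 Paddy soil in Wagner pots with compound fertilizer, puddled; 30 seeds per species sown at 0–1 cm, flooded ~3 cm, greenhouse. Seven days after seeding, water-diluted emulsions were dropped into the water at 120 g active ingredient per 10 ares. Duplicate pots; herbicidal rate from dry weight versus untreated, 14 days after treatment.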

Echinochloa crus-galli [10] = test: as above; conditions: 120 g/10a active ingredient, assessed 14 days after treatment, dry weight vs untreated area
Summary of the method: as §3

[11] = tested on: broad leaf weeds (Lindernia pyxidaria and Monochoria vaginalis); test: as above; conditions: 120 g/10a active ingredient, assessed 14 days after treatment, dry weight vs untreated area; for pest or weed control at 1200 g/ha: 336 h
Summary of the method: as §3

Scirpus juncoides [12] = test: Test Example 1: herbicidal effect test by treatment of rice paddy soil (immediately after seeding); conditions: 120 g/10a active ingredient, dry weight vs untreated area, 14 days after treatment
Summary of the method: (§4)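 Flooded paddy pot test in a glass greenhouse: emulsion diluted in water, dropped at 120 g a.i. per 10 ares just after sowing, water depth kept about 3 cm. Dry-weight reduction relative to untreated plants is scored at 14 days.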

Echinochloa crus-galli [13] = test: as above; conditions: 120 g/10a active ingredient, dry weight vs untreated area, 14 days after treatment
Summary of the method: as §4

[14] = tested on: broad leaf weeds (Lindernia pyxidaria and Monochoria vaginalis); test: as above; conditions: 120 g/10a active ingredient, dry weight vs untreated area, 14 days after treatment; for pest or weed control at 1200 g/ha: 336 h
Summary of the method: as §4

## CSCCn1oc(=O)c(Cc2ccccc2N(C(=O)CC(C)C)S(=O)(=O)C(F)(F)F)c1C [Compound 1-358]
Southern crabgrass [1]
  herbicidal rate, southern crabgrass: 90%
Echinochloa crus-galli [2]
  herbicidal rate, Echinochloa crus-galli: 90%
Chenopodium album [3]
  herbicidal rate, Chenopodium album: 90%
Amaranthus viridis [4]
  herbicidal rate, Amaranthus viridis: 90%
Southern crabgrass [5]
  herbicidal effect (herbicidal rate), southern crabgrass: 90%
Echinochloa crus-galli [6]
  herbicidal effect (herbicidal rate), Echinochloa crus-galli: 90%
Chenopodium album [7]
  herbicidal effect (herbicidal rate), Chenopodium album: 40%
Amaranthus viridis [8]
  herbicidal effect (herbicidal rate), Amaranthus viridis: 40%
Scirpus juncoides [9]
  Herbicidal rate (%) Scirpus juncoides: 90%
Echinochloa crus-galli [10]
  Herbicidal rate (%) Echinochloa crus-galli: 90%
[11]; Lindernia pyxidaria
  Herbicidal rate (%) Lindernia pyxidaria: 90%
[11]; Monochoria vaginalis
  Herbicidal rate (%) Monochoria vaginalis: 90%
Scirpus juncoides [12]
  Herbicidal rate (%) Scirpus juncoides: 90%
Echinochloa crus-galli [13]
  Herbicidal rate (%) Echinochloa crus-galli: 90%
[14]; Lindernia pyxidaria
  Herbicidal rate (%) Lindernia pyxidaria: 90%
[14]; Monochoria vaginalis
  Herbicidal rate (%) Monochoria vaginalis: 90%

## Cc1c(Cc2ccccc2N(C(=O)c2ccccc2)S(=O)(=O)C(F)(F)F)c(=O)on1C(C)(C)C [Compound 1-473]
Southern crabgrass [1]
  herbicidal rate, southern crabgrass: 90%
Echinochloa crus-galli [2]
  herbicidal rate, Echinochloa crus-galli: 90%
Chenopodium album [3]
  herbicidal rate, Chenopodium album: 90%
Amaranthus viridis [4]
  herbicidal rate, Amaranthus viridis: 90%
Southern crabgrass [5]
  herbicidal effect (herbicidal rate), southern crabgrass: 90%
Echinochloa crus-galli [6]
  herbicidal effect (herbicidal rate), Echinochloa crus-galli: 90%
Chenopodium album [7]
  herbicidal effect (herbicidal rate), Chenopodium album: 40%
Amaranthus viridis [8]
  herbicidal effect (herbicidal rate), Amaranthus viridis: 40%
Scirpus juncoides [9]
  Herbicidal rate (%) Scirpus juncoides: 90%
Echinochloa crus-galli [10]
  Herbicidal rate (%) Echinochloa crus-galli: 90%
[11]; Lindernia pyxidaria
  Herbicidal rate (%) Lindernia pyxidaria: 90%
[11]; Monochoria vaginalis
  Herbicidal rate (%) Monochoria vaginalis: 90%
Scirpus juncoides [12]
  Herbicidal rate (%) Scirpus juncoides: 90%
Echinochloa crus-galli [13]
  Herbicidal rate (%) Echinochloa crus-galli: 90%
[14]; Lindernia pyxidaria
  Herbicidal rate (%) Lindernia pyxidaria: 90%
[14]; Monochoria vaginalis
  Herbicidal rate (%) Monochoria vaginalis: 90%

## CSCCn1oc(=O)c(Cc2ccccc2N(C(=O)C(C)C)S(=O)(=O)C(F)(F)F)c1C [Compound 1-336]
Southern crabgrass [1]
  herbicidal rate, southern crabgrass: 90%
Echinochloa crus-galli [2]
  herbicidal rate, Echinochloa crus-galli: 90%
Chenopodium album [3]
  herbicidal rate, Chenopodium album: 90%
Amaranthus viridis [4]
  herbicidal rate, Amaranthus viridis: 90%
Southern crabgrass [5]
  herbicidal effect (herbicidal rate), southern crabgrass: 90%
Echinochloa crus-galli [6]
  herbicidal effect (herbicidal rate), Echinochloa crus-galli: 90%
Chenopodium album [7]
  herbicidal effect (herbicidal rate), Chenopodium album: 40%
Amaranthus viridis [8]
  herbicidal effect (herbicidal rate), Amaranthus viridis: 40%
Scirpus juncoides [9]
  Herbicidal rate (%) Scirpus juncoides: 90%
Echinochloa crus-galli [10]
  Herbicidal rate (%) Echinochloa crus-galli: 90%
[11]; Lindernia pyxidaria
  Herbicidal rate (%) Lindernia pyxidaria: 90%
[11]; Monochoria vaginalis
  Herbicidal rate (%) Monochoria vaginalis: 90%
Scirpus juncoides [12]
  Herbicidal rate (%) Scirpus juncoides: 90%
Echinochloa crus-galli [13]
  Herbicidal rate (%) Echinochloa crus-galli: 90%
[14]; Lindernia pyxidaria
  Herbicidal rate (%) Lindernia pyxidaria: 90%
[14]; Monochoria vaginalis
  Herbicidal rate (%) Monochoria vaginalis: 90%

## C=CC(C)n1oc(=O)c(Cc2ccccc2N(S(=O)(=O)C(F)(F)F)S(=O)(=O)C(F)(F)F)c1C (centres unmarked) [Compound 1-986]
Southern crabgrass [1]
  herbicidal rate, southern crabgrass: 80%
Echinochloa crus-galli [2]
  herbicidal rate, Echinochloa crus-galli: 100%
Chenopodium album [3]
  herbicidal rate, Chenopodium album: 60%
Amaranthus viridis [4]
  herbicidal rate, Amaranthus viridis: 60%
Southern crabgrass [5]
  herbicidal effect (herbicidal rate), southern crabgrass: 90%
Echinochloa crus-galli [6]
  herbicidal effect (herbicidal rate), Echinochloa crus-galli: 90%
Chenopodium album [7]
  herbicidal effect (herbicidal rate), Chenopodium album: 40%
Amaranthus viridis [8]
  herbicidal effect (herbicidal rate), Amaranthus viridis: 60%
Scirpus juncoides [9]
  Herbicidal rate (%) Scirpus juncoides: 90%
Echinochloa crus-galli [10]
  Herbicidal rate (%) Echinochloa crus-galli: 90%
[11]; Lindernia pyxidaria
  Herbicidal rate (%) Lindernia pyxidaria: 40%
[11]; Monochoria vaginalis
  Herbicidal rate (%) Monochoria vaginalis: 70%
Scirpus juncoides [12]
  Herbicidal rate (%) Scirpus juncoides: 90%
Echinochloa crus-galli [13]
  Herbicidal rate (%) Echinochloa crus-galli: 90%
[14]; Lindernia pyxidaria
  Herbicidal rate (%) Lindernia pyxidaria: 90%
[14]; Monochoria vaginalis
  Herbicidal rate (%) Monochoria vaginalis: 80%

## Cc1c(Cc2ccccc2N(C(=O)C2CCCCC2)S(=O)(=O)C(F)(F)F)c(=O)on1C(C)(C)C [Compound 1-431]
Southern crabgrass [1]
  herbicidal rate, southern crabgrass: 90%
Echinochloa crus-galli [2]
  herbicidal rate, Echinochloa crus-galli: 90%
Chenopodium album [3]
  herbicidal rate, Chenopodium album: 90%
Amaranthus viridis [4]
  herbicidal rate, Amaranthus viridis: 90%
Southern crabgrass [5]
  herbicidal effect (herbicidal rate), southern crabgrass: 90%
Echinochloa crus-galli [6]
  herbicidal effect (herbicidal rate), Echinochloa crus-galli: 90%
Chenopodium album [7]
  herbicidal effect (herbicidal rate), Chenopodium album: 40%
Amaranthus viridis [8]
  herbicidal effect (herbicidal rate), Amaranthus viridis: 40%
Scirpus juncoides [9]
  Herbicidal rate (%) Scirpus juncoides: 90%
Echinochloa crus-galli [10]
  Herbicidal rate (%) Echinochloa crus-galli: 90%
[11]; Lindernia pyxidaria
  Herbicidal rate (%) Lindernia pyxidaria: 90%
[11]; Monochoria vaginalis
  Herbicidal rate (%) Monochoria vaginalis: 90%
Scirpus juncoides [12]
  Herbicidal rate (%) Scirpus juncoides: 90%
Echinochloa crus-galli [13]
  Herbicidal rate (%) Echinochloa crus-galli: 90%
[14]; Lindernia pyxidaria
  Herbicidal rate (%) Lindernia pyxidaria: 90%
[14]; Monochoria vaginalis
  Herbicidal rate (%) Monochoria vaginalis: 90%

## Cc1c(Cc2ccccc2N(S(C)(=O)=O)S(=O)(=O)C(F)(F)F)c(=O)on1Cc1ccc(F)cc1 [Compound 1-906]
Southern crabgrass [1]
  herbicidal rate, southern crabgrass: 90%
Echinochloa crus-galli [2]
  herbicidal rate, Echinochloa crus-galli: 100%
Chenopodium album [3]
  herbicidal rate, Chenopodium album: 70%
Amaranthus viridis [4]
  herbicidal rate, Amaranthus viridis: 50%
Southern crabgrass [5]
  herbicidal effect (herbicidal rate), southern crabgrass: 50%
Echinochloa crus-galli [6]
  herbicidal effect (herbicidal rate), Echinochloa crus-galli: 90%
Chenopodium album [7]
  herbicidal effect (herbicidal rate), Chenopodium album: 50%
Amaranthus viridis [8]
  herbicidal effect (herbicidal rate), Amaranthus viridis: 100%
Scirpus juncoides [9]
  Herbicidal rate (%) Scirpus juncoides: 100%
Echinochloa crus-galli [10]
  Herbicidal rate (%) Echinochloa crus-galli: 90%
[11]; Lindernia pyxidaria
  Herbicidal rate (%) Lindernia pyxidaria: 100%
[11]; Monochoria vaginalis
  Herbicidal rate (%) Monochoria vaginalis: 100%
Scirpus juncoides [12]
  Herbicidal rate (%) Scirpus juncoides: 100%
Echinochloa crus-galli [13]
  Herbicidal rate (%) Echinochloa crus-galli: 100%
[14]; Lindernia pyxidaria
  Herbicidal rate (%) Lindernia pyxidaria: 100%
[14]; Monochoria vaginalis
  Herbicidal rate (%) Monochoria vaginalis: 100%

## CCC(C)n1oc(=O)c(Cc2ccccc2NS(=O)(=O)C(F)(F)F)c1C (centres unmarked) [Compound 1-102, 1,1,1-trifluoro-N-[2-[(3-methyl-5-oxo-2-sec-butyl-isoxazol-4-yl)methyl]phenyl]methanesulfonamide]
Southern crabgrass [1]; Digitaria ciliaris, 336 h, read-out: herbicidal rate, southern crabgrass
  pest or weed control at 1200 g/ha: 90%
Echinochloa crus-galli [2]; Echinochloa crus-galli, 336 h, read-out: herbicidal rate, Echinochloa crus-galli
  pest or weed control at 1200 g/ha: 90%
Chenopodium album [3]; Chenopodium album, 336 h, read-out: herbicidal rate, Chenopodium album
  pest or weed control at 1200 g/ha: 80%
Amaranthus viridis [4]; Amaranthus viridis, 336 h, read-out: herbicidal rate, Amaranthus viridis
  pest or weed control at 1200 g/ha: 80%
Southern crabgrass [5]; Digitaria ciliaris, 336 h, read-out: herbicidal effect (herbicidal rate), southern crabgrass
  pest or weed control at 1200 g/ha: 80%
Echinochloa crus-galli [6]; Echinochloa crus-galli, 336 h, read-out: herbicidal effect (herbicidal rate), Echinochloa crus-galli
  pest or weed control at 1200 g/ha: 90%
Chenopodium album [7]; Chenopodium album, 336 h, read-out: herbicidal effect (herbicidal rate), Chenopodium album
  pest or weed control at 1200 g/ha: 0%
Amaranthus viridis [8]; Amaranthus viridis, 336 h, read-out: herbicidal effect (herbicidal rate), Amaranthus viridis
  pest or weed control at 1200 g/ha: 40%
Scirpus juncoides [9]; Schoenoplectiella juncoides, 336 h, read-out: herbicidal rate (%) Scirpus juncoides
  pest or weed control at 1200 g/ha: 90%
Echinochloa crus-galli [10]; Echinochloa crus-galli, 336 h, read-out: herbicidal rate (%) Echinochloa crus-galli
  pest or weed control at 1200 g/ha: 90%
[11]; Lindernia pyxidaria, read-out: herbicidal rate (%) Lindernia pyxidaria
  pest or weed control at 1200 g/ha: 60%
[11]; Monochoria vaginalis, read-out: herbicidal rate (%) Monochoria vaginalis
  pest or weed control at 1200 g/ha: 90%
Scirpus juncoides [12]; in Schoenoplectiella juncoides, 336 h, read-out: Herbicidal rate (%) Scirpus juncoides
  pest or weed control at 1200 g/ha: 100%
Echinochloa crus-galli [13]; in Echinochloa crus-galli, 336 h, read-out: Herbicidal rate (%) Echinochloa crus-galli
  pest or weed control at 1200 g/ha: 100%
[14]; Monochoria vaginalis, read-out: Herbicidal rate (%) Monochoria vaginalis
  pest or weed control at 1200 g/ha: 100%
[14]; in Lindernia, Lindernia pyxidaria, read-out: Herbicidal rate (%) Lindernia pyxidaria
  pest or weed control at 1200 g/ha: 100%

## Cc1c(Cc2ccccc2NS(=O)(=O)C(F)(F)F)c(=O)on1CC1CCCO1 (centres unmarked) [Compound 1-230]
Southern crabgrass [1]
  herbicidal rate, southern crabgrass: 100%
Echinochloa crus-galli [2]
  herbicidal rate, Echinochloa crus-galli: 100%
Chenopodium album [3]
  herbicidal rate, Chenopodium album: 60%
Amaranthus viridis [4]
  herbicidal rate, Amaranthus viridis: 60%
Southern crabgrass [5]
  herbicidal effect (herbicidal rate), southern crabgrass: 80%
Echinochloa crus-galli [6]
  herbicidal effect (herbicidal rate), Echinochloa crus-galli: 80%
Chenopodium album [7]
  herbicidal effect (herbicidal rate), Chenopodium album: 40%
Amaranthus viridis [8]
  herbicidal effect (herbicidal rate), Amaranthus viridis: 40%
Scirpus juncoides [9]
  Herbicidal rate (%) Scirpus juncoides: 90%
Echinochloa crus-galli [10]
  Herbicidal rate (%) Echinochloa crus-galli: 90%
[11]; Lindernia pyxidaria
  Herbicidal rate (%) Lindernia pyxidaria: 70%
[11]; Monochoria vaginalis
  Herbicidal rate (%) Monochoria vaginalis: 90%
Scirpus juncoides [12]
  Herbicidal rate (%) Scirpus juncoides: 90%
Echinochloa crus-galli [13]
  Herbicidal rate (%) Echinochloa crus-galli: 100%
[14]; Lindernia pyxidaria
  Herbicidal rate (%) Lindernia pyxidaria: 100%
[14]; Monochoria vaginalis
  Herbicidal rate (%) Monochoria vaginalis: 80%
